“Also recorded” adds a separate entry of the source. Like-named read-outs stand apart in the source and are kept apart here.
Columns and labels:
[1] = biological target: T1, LmjIPCS (inositol phosphorylceramide synthase from L. major) (Leishmania major, UniProt E9AFX2); assay: biochemical; format: biochemical; parameters: inhibition: dose or concentration left out as unconfirmed; conditions: for inhibition: read-out: inhibition LmjIPCS
T1 sequence (E9AFX2 1-338): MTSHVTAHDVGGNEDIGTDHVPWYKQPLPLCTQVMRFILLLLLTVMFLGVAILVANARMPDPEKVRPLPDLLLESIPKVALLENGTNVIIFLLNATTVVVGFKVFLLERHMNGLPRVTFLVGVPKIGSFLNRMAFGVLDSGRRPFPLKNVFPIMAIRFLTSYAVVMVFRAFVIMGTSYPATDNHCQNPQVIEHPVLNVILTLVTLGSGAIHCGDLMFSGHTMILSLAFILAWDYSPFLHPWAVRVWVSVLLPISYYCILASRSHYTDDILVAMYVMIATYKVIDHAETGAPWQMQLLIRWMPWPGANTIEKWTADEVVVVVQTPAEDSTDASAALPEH

[2] = system: clemastine fumarate-resistant L. major promastigotes (cl.C and cl.D); format: cell-based, Leishmania major
[3] = system: L. major (FV1) promastigotes; assay: Antipromastigote resazurin assay, L. major (FV1) wild type; format: cell-based, Leishmania major
[4] = NINDS set screen, single concentration printed as 20mM
[5] = NINDS set screen against L. major promastigotes, single concentration printed as 10mM
[6] = L. major promastigotes, dose response

NC[C@@H]1O[C@H](O[C@H]2[C@@H](O)[C@H](O[C@@H]3[C@@H](O)[C@H](N)C[C@H](N)[C@H]3O[C@H]3O[C@H](CO)[C@@H](O)[C@H](O)[C@H]3N)O[C@@H]2CO)[C@H](N)[C@@H](O)[C@@H]1O [paromomycin, reference compound]
inhibition [1]: -17%
cross-resistance in clemastine fumarate-resistant L. major clones [2]: no evidence for cross-resistance

N=C(N)c1ccc(OCCCCCOc2ccc(C(=N)N)cc2)cc1 [pentamidine 9, pentamidine, reference compound]
10mM inhibition L. major [3]: 59%
ED50 vs L. major [3]: 2050 µM
cross-resistance in clemastine fumarate-resistant L. major clones [2]: no evidence for cross-resistance; also recorded: statistically significant hypersensitivity

CCCCCCCCCCCCCCCCOP(=O)([O-])OCC[N+](C)(C)C [miltefosine, reference compound]
inhibition [1]: 3.35%
cross-resistance in clemastine fumarate-resistant L. major clones [2]: no evidence for cross-resistance

Cc1cc(C(C)(C)C)c(O)c(C)c1CC1=NCCN1 [OXYMETAZOLINE]
20mM inhibition LmjIPCS [1, 4]: 75%
10mM inhibition L. major [3, 5]: <5%

CCN(CCCc1ccccc1)CCCc1ccccc1 [ALVERINE]
20mM inhibition LmjIPCS [1, 4]: 70%
10mM inhibition L. major [3, 5]: <5%

TANNIC ACID
20mM inhibition LmjIPCS [1]: 91%
10mM inhibition L. major [3, 5]: <5%

NC[C@@H]1O[C@H](O[C@H]2[C@@H](O)[C@H](O[C@@H]3[C@@H](O)[C@H](N)C[C@H](N)[C@H]3O[C@H]3O[C@H](CN)[C@@H](O)[C@H](O)[C@H]3N)O[C@@H]2CO)[C@H](N)[C@@H](O)[C@@H]1O [NEOMYCIN]
20mM inhibition LmjIPCS [1, 4]: 88%
10mM inhibition L. major [3, 5]: <5%

CC1=C2C(=CO[C@H](C)[C@H]2C)C(O)=C(C(=O)O)C1=O [CITRININ]
20mM inhibition LmjIPCS [1]: 76%
10mM inhibition L. major [3, 5]: <5%

Cc1cccc(CN2CCN(C(c3ccccc3)c3ccc(Cl)cc3)CC2)c1 (centres unmarked) [MECLIZINE]
20mM inhibition LmjIPCS [1]: 78%
10mM inhibition L. major [3, 5]: <5%

CC(CN1c2ccccc2Sc2ccccc21)N(C)C (centres unmarked) [PROMETHAZINE]
20mM inhibition LmjIPCS [1, 4]: 78%
10mM inhibition L. major [3, 5]: <5%

CCC(=O)O[C@H]1CC[C@H]2[C@@H]3CCc4cc(O)ccc4[C@H]3CC[C@]12C [ESTRADIOL PROPIONATE]
20mM inhibition LmjIPCS [1, 4]: 74%
10mM inhibition L. major [3, 5]: <5%

CCCC1O[C@@H]2C[C@H]3[C@@H]4CCC5=CC(=O)C=C[C@]5(C)[C@H]4[C@@H](O)C[C@]3(C)[C@]2(C(=O)CO)O1 (some centres unmarked) [BUDESONIDE]
20mM inhibition LmjIPCS [1, 4]: 79%
10mM inhibition L. major [3, 5]: <5%

O=C1c2c(O)cccc2Cc2cccc(O)c21 [ANTHRALIN]
20mM inhibition LmjIPCS [1, 4]: 70%
10mM inhibition L. major [3, 5]: <5%

O=c1[nH]c2ccccc2n1C1CCN(CCCC(c2ccc(F)cc2)c2ccc(F)cc2)CC1 [pimozide 10, pimozide, reference compound]
20mM inhibition LmjIPCS [1]: 77%
IC50 [1]: 4.14 µM
LmjIPCS inhibition ([1]; secondary dose response): confirmed
ED50 vs L. major [3, 6]: 22900 µM
EC50 ([3]; Leishmania major, secondary dose response, L. major (FV1), read-out: EC50 against L. major promastigotes): > 1 µM
10mM inhibition L. major [3, 5]: 56%

N=C1C=CC(=C(c2ccc(N)cc2)c2ccc(N)cc2)C=C1 [pararosaniline 8, pararosaniline]
20mM inhibition LmjIPCS [1]: 78%
IC50 ([1]; dose response, read-out: IC50 vs LmjIPCS): > 100 µM
IC50 against LmjIPCS ([1]; secondary dose response, commercially sourced samples): could not be determined
ED50 vs L. major [3, 6]: 9780 µM
antileishmanial activity ([3]; L. major promastigotes, secondary dose response): poor antileishmanial activity
10mM inhibition L. major [3, 5]: 75%

GINKGOLIC ACID
20mM inhibition LmjIPCS [1]: 73%
10mM inhibition L. major [3, 5]: <5%

— publication PMC7802075 (ACS Infectious Diseases, 2020)
